Key:
[1] = log P (pH 2.7) given with the preparation examples; format: physicochemical; details: for logP: pH 2.7, pH 2.7
Phytophthora infestans = format: in vivo; details: tomato young plants, protective spray, active ingredient concentration 10 ppm, evaluation 3 days after inoculation; 0% = control, 100% = no infection

With `CC(C)(C)OC(=O)N1CCC(c2nc(C=NO)cs2)CC1` [A, tert-Butyl 4-{4-[(hydroxyimino)methyl]-1,3-thiazol-2-yl}piperidine-1-carboxylate] the “log P (pH 2.7)” value ([1]; pH 2.7) was 2.38 and the logP [1] was 2.25.
In the case of `CCOC(=O)C1CC(c2csc(C3CCN(C(=O)OC(C)(C)C)CC3)n2)=NO1` (stereo not drawn) [B, tert-Butyl 4-{4-[5-(ethoxycarbonyl)-4,5-dihydro-1,2-oxazol-3-yl]-1,3-thiazol-2-yl}piperidine-1-carboxylate], the logP [1] is reported as 3.14.
`O=C(O)C1CC(c2csc(C3CCN(C(=O)Cn4nc(C(F)F)cc4C(F)F)CC3)n2)=NO1` (stereo not drawn) [D, 3-[2-(1-{[3,5-Bis(difluoromethyl)-1H-pyrazol-1-yl]acetyl}piperidin-4-yl)-1,3-thiazol-4-yl]-4,5-dihydro-1,2-oxazole-5-carboxylic acid] showed a logP [1] of 1.77.
For `COC(=O)C1CC(c2csc(C3CCN(C(=O)Cn4nc(C(F)F)cc4C(F)F)CC3)n2)=NO1` (stereo not drawn) [Example I-1, methyl 3-[2-(1-{[3,5-bis(difluoromethyl)-1H-pyrazol-1-yl]acetyl}piperidin-4-yl)-1,3-thiazol-4-yl]-4,5-dihydro-1,2-oxazole-5-carboxylate], the chromatographic logP (physchem; pH 2.3) was 2.28, the chromatographic logP (physchem; pH 7.8) was 2.28 and the “Eff (efficacy)” value (Phytophthora infestans) was 75%. The logP [1] was 2.26.
For `O=C(OC1CCCCC1Cl)C1CC(c2csc(C3CCN(C(=O)Cn4nc(C(F)F)cc4C(F)F)CC3)n2)=NO1` (stereo not drawn) [Example I-5, 2-Chlorocyclohexyl 3-[2-(1-{[3,5-bis(difluoromethyl)-1H-pyrazol-1-yl]acetyl}piperidin-4-yl)-1,3-thiazol-4-yl]-4,5-dihydro-1,2-oxazole-5-carboxylate], the chromatographic logP (physchem; pH 2.3) was 3.42, the chromatographic logP (physchem; pH 7.8) was 3.5 and the “Eff (efficacy)” value (Phytophthora infestans) was 93%. For the same molecule, the logP ([1]; reversed-phase HPLC column (C18)) was 3.43.
